Source: ChEMBL document CHEMBL4813952, “Axial Chiral Binaphthoquinone and Perylenequinones from the Stromata of Hypocrella bambusae Are SARS-CoV-2 Entry Inhibitors” (J Nat Prod, 2021)
Active and inactive are the calls of the source. The calls are words filed in the database; no cut-off is given here.

Key:
[1] = biological target: Spike glycoprotein (Severe acute respiratory syndrome coronavirus 2) (UniProt P0DTC2); assay: Inhibition of spike glycoprotein S in SARS-CoV-2 pseudovirus infected in human 293T/ACE2 cells assessed as inhibition of viral infection; format: cell-based
SARS-CoV-2 [2] = assay: Antiviral activity against SARS-CoV-2 Wuhan-HU-1 infection on African green monkey Vero E6 cells assessed by drecrease in viral nucleocapsid N-protein expression at 20 uM measured after 48 hrs by DAPI staining based immunofluorescence microscopy; format: functional, organism-based; conditions: Severe acute respiratory syndrome coronavirus 2
[3] = Cytotoxicity against human 293T/ACE2 cells measured after 48 hrs by CCK8 assay; format: cell-based
Vero C1008 = assay: Cytotoxicity against African Green monkey Vero E6 cells at 10 uM measured after 24 to 48 hrs by CCK8 assay; format: cell-based; conditions: chlorocebus sabaeus, vero c1008, 10 µM, time 24-48 hrs
SARS-CoV-2 [4] = assay: Antiviral activity against SARS-CoV-2 Wuhan-HU-1 infection on African green monkey Vero E6 cells assessed by drecrease in viral nucleocapsid N-protein expression measured after 48 hrs by DAPI staining based immunofluorescence microscopy; format: functional, organism-based; conditions: Severe acute respiratory syndrome coronavirus 2, dose 0.08-2.2 µM
Spike glycoprotein = Spike glycoprotein (Severe acute respiratory syndrome coronavirus 2, UniProt P0DTC2); assay: Binding affinity to SARS-CoV-2 spike glycoprotein S RBD at 25 degreeC by surface plasmon resonance assay
[5] = biological target: Spike glycoprotein (Severe acute respiratory syndrome coronavirus 2) (UniProt P0DTC2); assay: Inhibition of SARS-CoV-2 spike glycoprotein S expressed in human HEK293T cells cotransfected with pAAV-IRES-GFP assessed as inhibition of membrane fusion to African green monkey Vero E6 cells causing suppression of syncytium formation at 2 uM preincubated for 30 mins measured after 24 hrs by cell-cell fusion based fluorescence microscopy; conditions: time 24.5 hrs
SARS-CoV-2 [6] = assay: Antiviral activity against SARS-CoV-2 Wuhan-HU-1 infected in African green monkey Vero E6 cells assessed as inhibition of viral infection when cells were preincubated for 1 hr followed by viral infection measured after 24 hrs by qPCR analysis; format: functional, organism-based; conditions: Severe acute respiratory syndrome coronavirus 2, Wuhan-HU-1, Vero C1008

Compound	inhibition [1]	Activity (SARS-CoV-2 [2])	CC50 at 48 h [3]	Activity (Vero C1008)	Activity (SARS-CoV-2 [4])	Kd (Spike glycoprotein)	inhibition [5]	EC50 (SARS-CoV-2 [6])
COC1=C(CC(C)=O)C(=O)c2c(c(O)cc(OC)c2-c2c(OC)cc(O)c3c2C(=O)C(CC(C)=O)=C(OC)C3=O)C1=O	inactive	inactive	> 10 µM	–	–	–	–	–
COc1c(O)c2c(=O)cc(OC)c3c4c(OC)cc(=O)c5c(O)c(OC)c6c(c(c1C[C@](C)(O)[C@H]6C(C)=O)c23)c54	inactive	–	2.5 µM	Non-Toxic	Dose-Dependent Effect	22.8 nM	inactive	210 nM
COc1c2c3c4c(c(OC)c(=O)c5c(O)cc(OC)c(c6c(OC)ccc(c1=O)c63)c54)CC(C)=C2C(C)=O	inactive	–	> 10 µM	–	–	–	–	–
COc1c2c3c4c(c(OC)c(=O)c5c(O)cc(OC)c(c6c(OC)cc(O)c(c1=O)c63)c54)[C@@H](C(C)=O)[C@@](C)(O)C2 [HYPOCRELLIN A]	inactive	–	2 µM	Non-Toxic	Dose-Dependent Effect	37.9 nM	inactive	220 nM
COC1=C2c3c4c5c(c(O)cc(OC)c5c5c(OC)cc(O)c(c35)C1=O)C(=O)[C@@H](OC)[C@@]41C[C@](C)(O)[C@@H]2[C@@]1(C)O	inactive	–	> 10 µM	–	–	–	–	–
COC1=CC(=O)c2c(O)c(OC)c3c(c2C1=O)-c1c(c(OC)c(O)c2c1C(=O)C(OC)=CC2O)C[C@](C)(O)[C@@H]3C(C)=O (stereo not given in full)	inactive	–	> 10 µM	–	–	–	–	–
COC1=C2c3c4c5c(c(O)cc(OC)c5c5c(OC)cc(O)c(c35)C1=O)C(=O)[C@@H](OC)[C@@]41C[C@](C)(O)[C@@H]2[C@]1(C)O	inactive	–	> 10 µM	–	–	–	–	–
